Experimental data reported in patent US4495358A, “Antibiotic pyrrolomycin E” (Meiji Seika Kaisha, Ltd., priority 1981, dated 1985).
In brackets after ≈: the same amount, converted by molar mass.

Legend:
[1] = system: Escherichia coli W 3630 RGN823; assay: Minimum inhibitory concentration, agar dilution method; format: cell-based; conditions: W3630RGN823, read-out: Minimum Inhibitory Concentration
Excerpt: (§1) The physical and chemical properties and the minimum inhibitory concentration against various microorganisms as measured by agar dilution method of pyrrolomycin E as obtained by the above-described method are as follows: […]

[2] = system: Klebsiella pneumoniae PCI-602; assay: as above; format: cell-based; conditions: PCI602
Excerpt: as §1

[3] = system: Staphylococcus aureus FDA209PJC-1; assay: as above; format: cell-based; conditions: FDA209PJC1
Excerpt: as §1

Salmonella typhi 0-901-W = assay: as above; format: cell-based; conditions: Salmonella enterica, read-out: Minimum Inhibitory Concentration
Excerpt: as §1

[4] = system: Escherichia coli NIHJ JC-2; assay: as above; format: cell-based; conditions: NIHJJC2
Excerpt: as §1

[5] = system: Staphylococcus aureus Smith; assay: as above; format: cell-based
Excerpt: as §1

[6] = system: Staphylococcus epidermidis ATCC 14990; assay: as above; format: cell-based; conditions: ATCC14990
Excerpt: as §1

Proteus vulgaris OX-19 = assay: as above; format: cell-based; conditions: OX19
Excerpt: as §1

[7] = system: Serratia marcescens No. 1; assay: as above; format: cell-based
Excerpt: as §1

[8] = system: Bacillus subtilis ATCC 6633; assay: as above; format: cell-based; conditions: ATCC6633
Excerpt: as §1

[9] = system: Pseudomonas aeruginosa IAM 1007; assay: as above; format: cell-based; conditions: IAM1007
Excerpt: as §1

Solubility = format: physicochemical
mice = conditions: mouse, in vivo, ip, 10 mg/kg
[10] = Nature of the substance (acidity); format: physicochemical

## O=[N+]([O-])c1cc(Cl)[nH]c1-c1cc(Cl)cc(Cl)c1O [pyrrolomycin E]
[1]
  MIC: 12.5 µg/mL (≈ 40.6 µM)
[2]
  MIC: > 100 µg/mL
[3]
  MIC: 1.56 µg/mL (≈ 5.07 µM)
Salmonella typhi 0-901-W
  MIC: > 100 µg/mL
[4]
  MIC: > 100 µg/mL
[5]
  MIC: 1.56 µg/mL (≈ 5.07 µM)
[6]
  MIC: 1.56 µg/mL (≈ 5.07 µM)
Proteus vulgaris OX-19
  MIC: 6.25 µg/mL (≈ 20.3 µM)
[7]
  MIC: > 100 µg/mL
[8]
  MIC: 0.025 µg/mL (≈ 0.0813 µM)
[9]
  MIC: > 100 µg/mL
Solubility; acetone
  Solubility: Soluble
Solubility; ethyl acetate
  Solubility: Soluble
Solubility; methanol
  Solubility: Soluble
Solubility; n-hexane
  Solubility: sparingly soluble
Solubility; water
  Solubility: sparingly soluble
mice
  acute toxicity (survival): All mice survived
[10]
  acidity of the substance: Weak acidic substance
